Read-outs that look alike come from different tables or passages of the source.
How the values were obtained:
[1] = molecular target: T1, human full-length glucocorticoid receptor (Homo sapiens, UniProt P04150); assay: Glucocorticoid Receptor Binding Assay (II), fluorescence polarization competitor kit (Fluormone GS1); conditions: cell lysate with recombinant human full-length GR, 1 nM Fluormone GS1, FP
T1 construct: a cell lysate containing recombinantly expressed human full-length glucocorticoid receptor; purchased PanVera Co., Madison, Wis; P2816
T1 sequence (P04150 1-777): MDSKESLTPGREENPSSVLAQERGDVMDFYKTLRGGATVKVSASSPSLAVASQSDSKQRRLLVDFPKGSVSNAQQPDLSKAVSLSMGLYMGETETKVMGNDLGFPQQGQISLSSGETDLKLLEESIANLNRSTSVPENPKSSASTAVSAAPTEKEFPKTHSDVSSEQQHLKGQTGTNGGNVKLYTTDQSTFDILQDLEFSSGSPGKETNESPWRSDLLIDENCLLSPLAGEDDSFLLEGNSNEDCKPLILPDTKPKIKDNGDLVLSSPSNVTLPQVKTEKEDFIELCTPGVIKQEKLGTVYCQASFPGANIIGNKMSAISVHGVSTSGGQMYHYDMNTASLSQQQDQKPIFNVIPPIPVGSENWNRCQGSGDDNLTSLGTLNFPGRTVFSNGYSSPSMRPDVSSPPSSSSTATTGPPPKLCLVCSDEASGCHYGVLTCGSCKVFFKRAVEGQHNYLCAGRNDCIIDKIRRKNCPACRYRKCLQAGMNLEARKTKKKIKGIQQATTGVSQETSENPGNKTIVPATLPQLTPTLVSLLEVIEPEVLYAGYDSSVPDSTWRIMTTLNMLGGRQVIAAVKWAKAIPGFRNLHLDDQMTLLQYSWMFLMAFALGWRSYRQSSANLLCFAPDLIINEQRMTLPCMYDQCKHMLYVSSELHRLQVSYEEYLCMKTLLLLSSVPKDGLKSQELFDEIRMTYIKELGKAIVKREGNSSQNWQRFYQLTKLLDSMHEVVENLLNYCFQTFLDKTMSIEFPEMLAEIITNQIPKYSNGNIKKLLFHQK
Experimental: In order to measure the binding of compounds on the glucocorticoid receptor a commercially available kit was used (Glucocorticoid receptor competitor assay kit, PanVera Co., Madison, Wis., P2816). Briefly, a cell lysate containing recombinantly expressed human full-length glucocorticoid receptor was mixed with a fluorescently labeled glucocorticoid (1 nM Fluormone GS1) in the presence or absence of test compound. After one hour at room temperature, the fluorescence polarization (FP) of the samples were measured.

[2] = system: AP-1 induced transcriptional activity; assay: Cellular Transrepressional Assay (AP-1 luciferase reporter in A549 cells, PMA-activated); assay type: cell-based; conditions: A549 cells with 7x AP-1 luciferase reporter, 10 ng/ml PMA, read-out: AP-1 (EC50, nM) (Cellular Transrepression Assay)
In short: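 Test molecules spanning 0.1 nM to 40 μM were co-incubated 7 h with 10 ng/ml PMA in A549 cells stably carrying a 7× AP-1-driven luciferase plasmid. Repression, as % reduction of PMA-alone luminescence measured 10 min after reagent addition, was curve-fitted to give EC50s.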

SMILES | Ki [1] | EC50 ([2]; Homo sapiens, A549, 7 h) | EC50 ([2]; 7 hours)
Cc1cccc(C(c2ccc3c(cnn3-c3ccc(F)cc3)c2)C(C)(C)C(=O)Nc2nncs2)c1 (stereo not drawn) [Example 50, 3-(1-(4-fluorophenyl)-1H-indazol-5-yl)-2,2-dimethyl-N-(1,3,4-thiadiazol-2-yl)-3-m-tolylpropanamide] | 0.92 nM | 9.7 nM | 
CC(C)CC1(c2ccc3c(cnn3-c3ccc(F)cc3)c2)CC1C(=O)Nc1nccs1 (mixture of isomers) [Example 100, Cis and trans-2-(1-(4-fluorophenyl)-1H-indazol-5-yl)-2-isobutyl-N-(thiazol-2-yl)cyclopropanecarboxamide] | 102 nM | 290 nM | 
O=C(Nc1nncs1)C(c1ccccc1)C(c1ccccc1)c1ccc2[nH]ncc2c1 (single isomer, unassigned) [152-diast A, 3-(1H-Indazol-5-yl)-2,3-diphenyl-N-(1,3,4-thiadiazol-2-yl)propanamide] | 9.8 nM | 2500 nM | 
CC(C)(C(=O)NC1CCCC1O)C(C)(C)c1ccc2c(cnn2-c2ccc(F)cc2)c1 (stereo not drawn) [Example 121, 3-(1-(4-fluorophenyl)-1H-indazol-5-yl)-N-(2-hydroxycyclopentyl)-2,2,3-trimethylbutanamide] | 8.3 nM | 1730 nM | 
Cc1ccc(C(c2ccc3c(cnn3-c3ccc(F)cc3)c2)C(C)(C)C(=O)Nc2nncs2)cc1 (stereo not drawn) [Example 51, 3-(1-(4-fluorophenyl)-1H-indazol-5-yl)-2,2-dimethyl-N-(1,3,4-thiadiazol-2-yl)-3-p-tolylpropanamide] | 1.8 nM | 3.9 nM | 
O=C(Nc1nncs1)C(C1CCCC1)C(c1ccccc1)c1ccc2c(cnn2-c2ccc(F)cc2)c1 (stereo not drawn) [Example 147, 2-cyclopentyl-3-(1-(4-fluorophenyl)-1H-indazol-5-yl)-3-phenyl-N-(1,3,4-thiadiazol-2-yl)propanamide] | 2.3 nM | 2 nM | 
CC(C)(C(=O)Nc1nccs1)C1(c2ccc3c(cnn3-c3ccc(F)cc3)c2)CCCCC1 [Example 102, 2-(1-(1-(4-Fluorophenyl)-1H-indazol-5-yl)cyclohexyl)-2-methyl-N-(thiazol-2-yl)propanamide] | 2.8 nM | 12 nM | 
CC(C)(C(=O)Nc1nncs1)C(c1ccc(F)cc1)c1ccc2c(cnn2-c2ccc(F)cc2)c1 (stereo not drawn) [Example 53, 3-(4-fluorophenyl)-3-(1-(4-fluorophenyl)-1H-indazol-5-yl)-2,2-dimethyl-N-(1,3,4-thiadiazol-2-yl)propanamide] | 1.9 nM | 13 nM | 
CC(C)(C(=O)N[C@@H]1CCC[C@H]1O)[C@@H](c1ccccc1)c1ccc2c(cnn2-c2ccc(F)cc2)c1 [Example 135, (S)-3-(1-(4-fluorophenyl)-1H-indazol-5-yl)-N-(2-hydroxycyclopentyl)-2,2-dimethyl-3-phenylpropanamide] | 0.6 nM | 40 nM | 
C/C=C/CC(c1ccc2c(cnn2-c2ccc(F)cc2)c1)C(C)(C)C(=O)Nc1nncs1 (stereo not drawn) [Example 55, (E)-3-(1-(4-fluorophenyl)-1H-indazol-5-yl)-2,2-dimethyl-N-(1,3,4-thiadiazol-2-yl)hept-5-enamide] | 1.3 nM | 2500 nM | 
O=C(Nc1nncs1)C(c1ccccc1)C(c1ccccc1)c1ccc2c(cnn2-c2ccc(F)cc2)c1 (single isomer, unassigned) [Example 145-isomerA, 3-(1-(4-fluorophenyl)-1H-indazol-5-yl)-2,3-diphenyl-N-(1,3,4-thiadiazol-2-yl)propanamide] | 18 nM |  | 5000 nM
Cc1cccc(C(c2ccc3c(cnn3-c3ccc(F)cc3)c2)C(C)(C)C(=O)Nc2nccs2)c1 (stereo not drawn) [Example 41, 3-(1-(4-fluorophenyl)-1H-indazol-5-yl)-2,2-dimethyl-N-(thiazol-2-yl)-3-m-tolylpropanamide] | 2.3 nM | 2.6 nM | 
O=C(Nc1nncs1)C(c1ccccc1)C(c1ccccc1)c1ccc2c(cnn2-c2ccc(F)cc2)c1 (single isomer, unassigned) [Example 145-isomerB, 3-(1-(4-fluorophenyl)-1H-indazol-5-yl)-2,3-diphenyl-N-(1,3,4-thiadiazol-2-yl)propanamide] | 1.1 nM |  | 5 nM
CCOC(=O)c1cccc(-n2ncc3cc([C@H](c4ccccc4)C(C)(C)C(=O)Nc4nncs4)ccc32)c1 (stereo in doubt) [Example 95, ethyl 3-(5-(3-(1,3,4-thiadiazol-2-ylamino)-2,2-dimethyl-3-oxo-1-phenylpropyl)-1H-indazol-1-yl)benzoate] | 496 nM | > 10000 nM | 
CC(C)(C(=O)NC1CCCC1)C(Cc1ccccc1)c1ccc2c(cnn2-c2ccc(F)cc2)c1 (single isomer, unassigned) [Example 131, N-cyclopentyl-3-(1-(4-fluorophenyl)-1H-indazol-5-yl)-2,2-dimethyl-4-phenylbutanamide] | 3 nM |  | > 10000 nM
O=C(Nc1nncs1)C(C1CCCCC1)C(c1ccccc1)c1ccc2c(cnn2-c2ccc(F)cc2)c1 (stereo not drawn) [Example 148, 2-cyclohexyl-3-(1-(4-fluorophenyl)-1H-indazol-5-yl)-3-phenyl-N-(1,3,4-thiadiazol-2-yl)propanamide] | 6.4 nM | 6 nM | 
CC(C)C(C(=O)Nc1nncs1)C(c1ccccc1)c1ccc2c(cnn2-c2ccc(F)cc2)c1 (stereo not drawn) [Example 144, 2-((1-(4-fluorophenyl)-1H-indazol-5-yl)(phenyl)methyl)-3-methyl-N-(1,3,4-thiadiazol-2-yl)butanamide] | 2 nM | 2 nM | 
CC(C)(C(=O)Nc1nccs1)C(C)(C)c1ccc2c(cnn2-c2ccc(F)cc2)c1 [Example 113, 3-(1-(4-Fluorophenyl)-1H-indazol-5-yl)-2,2,3-trimethyl-N-(thiazol-2-yl)butanamide] | 5.1 nM | 107 nM | 
CC(C)(C(=O)Nc1nccs1)C(c1ccc(F)cc1)c1ccc2c(cnn2-c2ccc(F)cc2)c1 (stereo not drawn) [Example 44, 3-(4-fluorophenyl)-3-(1-(4-fluorophenyl)-1H-indazol-5-yl)-2,2-dimethyl-N-(thiazol-2-yl)propanamide] | 2.4 nM | 14 nM | 
CCC(C(=O)Nc1nncs1)C(c1ccccc1)c1ccc2c(cnn2-c2ccc(F)cc2)c1 (stereo not drawn) [Example 142, 2-((1-(4-Fluorophenyl)-1H-indazol-5-yl)(phenyl)methyl)-N-(1,3,4-thiadiazol-2-yl)butanamide] | 1.1 nM | 0.55 nM | 
Cc1cc2c(cnn2-c2ccc(F)cc2)cc1CC(C)(C)C(=O)Nc1nncs1 [Example 105] | 5.6 nM | 1.9 nM | 
CC(C)(C(=O)NC1CC1)C(Cc1ccccc1)c1ccc2c(cnn2-c2ccc(F)cc2)c1 (stereo not drawn) [Example 128, N-cyclopropyl-3-(1-(4-fluorophenyl)-1H-indazol-5-yl)-2,2-dimethyl-4-phenylbutanamide] | 0.68 nM | 673 nM | 
CC(C)(C(=O)Nc1nncs1)C(c1ccc2c(cnn2-c2ccc(F)cc2)c1)C1CC1 (stereo not drawn) [Example 47, 3-cyclopropyl-3-(1-(4-fluorophenyl)-1H-indazol-5-yl)-2,2-dimethyl-N-(1,3,4-thiadiazol-2-yl)propanamide] | 1.7 nM | 523 nM | 
CC(C)c1cc2c(cnn2-c2ccc(F)cc2)cc1CC(C)(C)C(=O)Nc1nncs1 [Example 104] | 1.6 nM | > 10000 nM | 

— US8067447B2, “Modulators of glucocorticoid receptor, AP-1, and/or NF-κB activity and use thereof” (Bristol-Myers Squibb Company, priority 2006, dated 2011)
